Source: publication PMC8538301, “Structurally Diverse Polycyclic Salicylaldehyde Derivative Enantiomers from a Marine-Derived Fungus Eurotium sp. SCSIO F452” (Marine Drugs, 2021)

How the values were obtained:
[1] = system: SF-268 (human glioblastoma carcinoma); assay: Cytotoxicity assay (SRB); assay type: cell-based; settings: SF-268 cells, mean ± SD
Experimental: (§1) The cells of SF-268 (human glioblastoma carcinoma), MCF-7 (breast cancer), HepG-2 (liver cancer), and A549 (lung cancer) were purchased from Stem Cell Bank, Chinese Academy of Sciences. The cells were cultured in DMEM medium (Gibco) containing 10% fetal bovine serum (Gibco) at 37 °C in a humidified atmosphere with 5% (v/v) CO2. The cells were incubated in cultural flasks until sub-confluent (~80%). Then, cells (180 μL) with a density of 3 × 10^4 cells/mL of media were seeded onto 96-well plates and incubated for 24 h at 37 °C, 5% CO2. Subsequently, 20 μL of different concentrations of compounds ranging from 1 to 128 μM in DMSO were added to each plate well. Equal volume of DMSO was used as a negative control. The plates were further incubated for 72 h. After incubation, cell monolayers were fixed with 50% (wt/v) trichloroacetic acid (50 μL) and stained for 30 min with 0.4% (wt/v) SRB dissolved in 1% acetic acid. Unbound dye was removed by washing repeatedly with 1% acetic acid. The protein-bound dye was dissolved in 10 mM Tris base solution (200 µL) for OD determination at 570 nm using a microplate reader. […] All data were obtained in triplicate and presented as means ± SD. IC50 values were calculated with the Sigma Plot 10.0 software (Systat Software Inc., CA, USA) using a non-linear curve-fitting method.

[2] = system: A549 (lung cancer); assay: Cytotoxicity assay (SRB); assay type: cell-based, human; settings: A549 cells, mean ± SD
Experimental: as §1

[3] = system: HepG2 (liver cancer); assay: Cytotoxicity assay (SRB); assay type: cell-based, human; settings: HepG2 cells, mean ± SD
Experimental: as §1

[4] = system: MCF-7 (breast cancer); assay: Cytotoxicity assay (SRB); assay type: cell-based, human; settings: MCF-7 cells, mean ± SD
Experimental: as §1

[5] = Antioxidative assay (DPPH radical scavenging); settings: 12 h, 517 nm
Experimental: Sample stock solutions (10 mM) were diluted to final concentrations of 2, 4, 8, 16, 32, 64, and 128 μM in ethanol. Then, 100 μL 0.2 mmol/L DPPH ethanol solution was added to 100 μL sample solutions of different concentrations on 96-well plates, and allowed to react at room temperature. […] After 12 h, the absorbance values were measured at 517 nm and converted into the percentage antioxidant activity (AA) using the following formula: AA(%) = [1 − (Asample − Ablank)/Acontrol] × 100%. All data were obtained in triplicate and are presented as means ± S.D. EC50 values were calculated with the SigmaPlot 10.0 software (Systat Software Inc., CA, USA) using a non-linear curve-fitting method.

[6] = biological target: α-glucosidase; assay: α-Glucosidase inhibitory activity assay (PNPG substrate); assay type: biochemical; settings: pH 6.8, 37 °C
Experimental: Inhibitory α-glucosidase activities were determined spectrophotometrically in a 96-well microtiter plate based on p-nitrophenyl-α-D-glucopyranoside (PNPG) as a substrate. In brief, 20 μL 0.2 U/mL α-glucosidase enzyme solution, 50 μL 0.1 mol/L PBS (pH 6.8), and 10 μL of the test compounds in DMSO were mixed and preincubated at 37 °C prior to initiation of the reaction by adding the substrate. After 10 min of preincubation, 20 μL 5 mmol/L PNPG solution was added and then incubated together at 37 °C. After 15 min of incubation, 20 μL 0.2 mol/L Na2CO3 was added to the test tubes to stop the reaction. The absorbance values were measured at 405 nm and converted into percentage inhibitory activity using the following formula: AA(%) = [1 − Asample/(Anegative control − Ablank)] × 100%. […] All data were obtained in triplicate and presented as means ± SD. IC50 values were calculated with the Sigma Plot 10.0 software using a non-linear curve-fitting method.

EC50 [5] | IC50 [6] | Compound | IC50 ([1]; Homo sapiens, SF-268, 72 h) | IC50 ([2]; Homo sapiens, A549, 72 h) | IC50 ([3]; Homo sapiens, HepG2, 72 h) | IC50 ([4]; Homo sapiens, MCF7, 72 h) | IC50 ([1]; 72 h) | IC50 ([2]; 72 h) | IC50 ([3]; 72 h) | IC50 ([4]; 72 h)
> 100 µM | 16.3 ± 1.68 µM | CCCCCC1(O)Cc2c3c(cc(O)c2C1=O)C=CC(C)(C)O3 (racemic) [(±)-3, Euroticin H] | > 100 µM | > 100 µM | > 100 µM | > 100 µM | – | – | – | –
> 100 µM | > 100 µM | CCCCCCCC1(O)CC(C=CC(C)(C)O)=CC1=O (single isomer, unassigned; (+)) [(+)-4, Euroticin I] | – | – | – | – | 12.7 ± 0.46 µM | 16.9 ± 0.92 µM | 19.9 ± 5.09 µM | 20.5 ± 1.54 µM
> 100 µM | > 100 µM | CCCCCCCC1(O)CC(C=CC(C)(C)O)=CC1=O (single isomer, unassigned; (-)) [(−)-4, Euroticin I] | 23.7 ± 3.88 µM | 22.2 ± 1.54 µM | 19.5 ± 2.7 µM | 23.6 ± 2.99 µM | – | – | – | –
> 100 µM | > 100 µM | CC(C)=CCc1cc2c(c(C=O)c1O)C1C(O)CCC1C(C)O2 (single isomer, unassigned; (-)) [(−)-5, eurotirumin] | 35.6 ± 1.79 µM | 42.6 ± 1.43 µM | 40.7 ± 2.76 µM | 50.7 ± 2.48 µM | – | – | – | –
76.9 ± 0.99 µM | 38 ± 2.73 µM | CO[C@H]1O[C@@H]2CC[C@@H]([C@H](C)O)[C@@H]2c2c(O)cc(CC=C(C)C)c(O)c21 [(+)-2, Euroticin G] | > 100 µM | > 100 µM | > 100 µM | > 100 µM | – | – | – | –
> 100 µM | 89.4 ± 7.86 µM | CC(C)=CCc1cc2c(c(C=O)c1O)[C@@H]1[C@H](CC[C@@H]1O)[C@@H](C)O2 [(+)-5, eurotirumin] | 22 ± 0.88 µM | 47.3 ± 0.71 µM | 41.2 ± 2.63 µM | 55.6 ± 4.85 µM | – | – | – | –
77.1 ± 1.88 µM | 79.7 ± 1.74 µM | CO[C@@H]1O[C@H]2CC[C@H]([C@@H](C)O)[C@H]2c2c(O)cc(CC=C(C)C)c(O)c21 [(−)-2, Euroticin G] | > 100 µM | > 100 µM | > 100 µM | > 100 µM | – | – | – | –
– | – | COc1cccc2c1C(=O)c1c(O)c3c(c(O)c1C2=O)C[C@@](O)(C(=O)CO)C[C@@H]3O[C@H]1C[C@H](N)[C@H](O)[C@H](C)O1 [Adriamycin, reference compound] | 1.19 ± 0.03 µM | 1.73 ± 0.04 µM | 1.99 ± 0.07 µM | 2.02 ± 0.04 µM | – | – | – | –
11.3 ± 0.56 µM | – | O=C1O[C@H]([C@@H](O)CO)C(O)=C1O [Ascorbic acid, reference compound] | – | – | – | – | – | – | – | –

Compound | EC50 [5] | IC50 [6] | IC50 ([1]; Homo sapiens, SF-268, 72 h) | IC50 ([2]; Homo sapiens, A549, 72 h) | IC50 ([3]; Homo sapiens, HepG2, 72 h) | IC50 ([4]; Homo sapiens, MCF7, 72 h) | IC50 ([1]; 72 h) | IC50 ([2]; 72 h) | IC50 ([3]; 72 h) | IC50 ([4]; 72 h)
CCCCC[C@H]1O[C@]2(C)Cc3c4c(cc(O)c3[C@H]1O2)C=CC(C)(C)O4 [(+)-1, Euroticin F] | 42.3 ± 3.85 µM | > 100 µM | 21.9 ± 0.96 µM | 33.8 ± 0.34 µM | 28 ± 1.68 µM | 27.2 ± 2.03 µM | – | – | – | –
CCCCC[C@@H]1O[C@@]2(C)Cc3c4c(cc(O)c3[C@@H]1O2)C=CC(C)(C)O4 [(−)-1, Euroticin F] | 41.4 ± 2.68 µM | > 100 µM | 37.3 ± 2.46 µM | 33.4 ± 1.5 µM | 30.7 ± 3.55 µM | 28 ± 1.57 µM | – | – | – | –
